Source: patent publication US20110178094A1, “Oral Formulation” (H. LUNDBECK A/S, priority 2008, published 2011)

Tests used:
[1] = tested on: condition avoidance response (CAR) model; assay: Condition avoidance response (CAR) model; format: in vivo; conditions: rats; at very low levels of D2 receptor occupancy
Text: The compound of formula I is a putative antipsychotic compound with affinity for both dopamine D1 and D2 receptors.

[2] = tested on: preclinical models of cognitive dysfunctions; assay: Preclinical models of cognitive dysfunctions; format: in vivo
Text: It is believed that the 5-HT6 receptor affinity of the compound of formula I is involved in the precognitive effects of the compound. Furthermore, it is believed that such pro-cognitive effect of the compound of formula I will be evident at a low level of D2 receptor occupancy, which is beneficial in terms of the side-effect profile.

[3] = Study of the compatibility of the excipients and the compound; format: physicochemical; conditions: components used in the tablet formulation
Text: Based on this, a traditional wet granulation, tabletting and film-coating process was developed using standard methods and excipients.

[4] = target: dopamine D1 receptors (Homo sapiens, UniProt P21728); conditions: reported in WO 2005/016900; cited from earlier work
[5] = target: dopamine D2 receptors (Homo sapiens, UniProt P14416); conditions: reported in WO 2005/016900; cited from earlier work
[6] = tested on: 5-HT2 receptor; conditions: reported in WO 2005/016900; cited from earlier work
[7] = tested on: α1 adrenoceptors; conditions: reported in WO 2005/016900; cited from earlier work

Chain of dopamine D2 receptors (P14416 whole entry): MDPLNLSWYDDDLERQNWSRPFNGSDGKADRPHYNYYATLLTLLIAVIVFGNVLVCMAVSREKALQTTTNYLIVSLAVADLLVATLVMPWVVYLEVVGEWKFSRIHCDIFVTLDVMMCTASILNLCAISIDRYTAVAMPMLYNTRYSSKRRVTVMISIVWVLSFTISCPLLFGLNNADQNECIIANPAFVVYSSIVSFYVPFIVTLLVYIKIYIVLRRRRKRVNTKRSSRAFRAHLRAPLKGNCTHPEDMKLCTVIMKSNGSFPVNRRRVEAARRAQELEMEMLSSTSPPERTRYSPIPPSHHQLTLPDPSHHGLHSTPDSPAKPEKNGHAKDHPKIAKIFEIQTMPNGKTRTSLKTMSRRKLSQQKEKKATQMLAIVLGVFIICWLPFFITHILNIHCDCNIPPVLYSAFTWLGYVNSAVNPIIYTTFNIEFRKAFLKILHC
Chain of dopamine D1 receptors (P21728 whole entry): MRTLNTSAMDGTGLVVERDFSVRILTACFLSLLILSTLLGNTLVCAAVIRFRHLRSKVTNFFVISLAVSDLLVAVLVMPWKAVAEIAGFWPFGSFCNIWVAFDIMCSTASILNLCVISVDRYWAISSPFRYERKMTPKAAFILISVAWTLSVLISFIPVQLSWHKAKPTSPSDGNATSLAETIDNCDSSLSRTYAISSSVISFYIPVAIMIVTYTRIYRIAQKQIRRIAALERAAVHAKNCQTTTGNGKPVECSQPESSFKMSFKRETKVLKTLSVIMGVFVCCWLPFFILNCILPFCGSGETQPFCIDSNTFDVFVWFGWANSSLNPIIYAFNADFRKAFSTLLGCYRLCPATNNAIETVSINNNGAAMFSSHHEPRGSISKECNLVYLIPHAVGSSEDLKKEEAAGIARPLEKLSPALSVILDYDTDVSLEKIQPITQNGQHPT

## CN1CCN([C@@H]2C[C@@H](c3ccccc3)c3ccc(Cl)cc32)CC1(C)C [compound of formula I, 4-((1R,3S)-6-chloro-3-phenylindan-1-yl)-1,2,2-trimethylpiperazine]
[1]
  antipsychotic activity in CAR model: possesses antipsychotic activity
[2]
  cognition enhancing properties: cognition enhancing properties
[3]
  compatibility of the tablet excipients with the compound: compatible
[4]
  affinity for dopamine D1 receptors (antagonist): high affinity
[5]
  affinity for dopamine D2 receptors (antagonist): high affinity
[6]
  affinity for the 5-HT2 receptor (antagonist): high affinity
[7]
  affinity for α1 adrenoceptors: high affinity
